# According to publication PMC10141844 (Archives of Virology, 2023):
# Several values for one entry are separate records, joined by “and”; a condition that tells them apart may be missing. Equal entries are not always repeated. Entries after “also recorded” stand apart in the source; their conditions may differ.
# Tests used:
# [1] = tested on: S10-3 human hepatoma cells; experiment: Cell viability / MTT assay; assay type: cell-based; conditions: highest concentration tolerated by S10-3 cells, MTT, 120 h
# [2] = Cell viability / MTT assay; assay type: cell-based, human; conditions: human, S10-3 human hepatoma cells
# HEV-1 helicase = target: T1, HEV-1 helicase (Hepatitis E virus genotype 1, UniProt P33424); experiment: Colorimetric ATPase assay of recombinant helicase; assay type: biochemical
# T1 sequence (P33424 960-1204): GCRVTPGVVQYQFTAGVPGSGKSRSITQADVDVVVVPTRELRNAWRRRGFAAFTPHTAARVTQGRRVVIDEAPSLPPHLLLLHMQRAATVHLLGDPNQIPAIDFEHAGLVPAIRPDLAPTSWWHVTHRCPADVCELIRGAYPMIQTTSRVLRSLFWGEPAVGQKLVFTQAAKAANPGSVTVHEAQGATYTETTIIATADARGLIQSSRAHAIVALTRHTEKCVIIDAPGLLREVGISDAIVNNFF
# HEV-1 RdRp = target: T2, HEV-1 RdRp (Hepatitis E virus genotype 1, UniProt P33424); experiment: Colorimetric RdRp polymerase assay; assay type: biochemical
# T2 sequence (P33424 1199-1693 limits assumed): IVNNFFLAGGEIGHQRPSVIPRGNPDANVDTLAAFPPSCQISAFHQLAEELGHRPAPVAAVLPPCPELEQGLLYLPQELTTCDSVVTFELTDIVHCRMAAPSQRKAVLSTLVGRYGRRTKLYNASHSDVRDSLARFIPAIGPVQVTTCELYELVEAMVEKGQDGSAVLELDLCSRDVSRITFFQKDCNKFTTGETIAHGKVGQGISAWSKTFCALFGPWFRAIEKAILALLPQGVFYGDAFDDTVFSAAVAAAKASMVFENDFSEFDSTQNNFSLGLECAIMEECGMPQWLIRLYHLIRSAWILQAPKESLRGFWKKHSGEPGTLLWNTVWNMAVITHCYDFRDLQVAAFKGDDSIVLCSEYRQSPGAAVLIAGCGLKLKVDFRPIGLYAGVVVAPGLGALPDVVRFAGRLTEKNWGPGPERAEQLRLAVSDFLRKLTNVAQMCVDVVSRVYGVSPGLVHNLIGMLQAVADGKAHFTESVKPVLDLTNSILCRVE
# HEV-1 [3] = experiment: HEV-1 subgenomic replicon Renilla luciferase assay in S10-3 cells; assay type: cell-based, Hepatitis E virus; conditions: for HEV-1 inhibition (%): subgenomic replicon, at MNTD: RBV 3.12 µM, CQ 0.06 µM, HCQ 0.78 µM, ART 23.43 µM, 48 h
# HEV-1 [4] = experiment: ORF2 protein expression by immunofluorescence assay and western blot; assay type: cell-based, Hepatitis E virus; conditions: IFA and western blot, 72 h and 96 h post-transfection, RBV 3.1 µM, ART 23.4 µM
# [5] = oral administration; cited from earlier work
# [6] = in silico toxicity studies, cited from earlier work
smiles,measurement,setting,value
"CCN(CCO)CCCC(C)Nc1ccnc2cc(Cl)ccc12 (stereo not shown) [HCQ, hydroxychloroquine]","MNTD, maximum nontoxic dose",[1],0.78 µM
"NC(=O)c1ncn([C@@H]2O[C@H](CO[P@@](=O)(O)O[P@](=O)(O)OP(=O)(O)O)[C@@H](O)[C@H]2O)n1 [RTP, Ribavirin triphosphate]",CC50 at 120 h,[2],169 ± 1.6 µM
same,"MNTD, maximum nontoxic dose",[1],7.8 µM
same,Helicase ATPase activity inhibition (%),"HEV-1 helicase; 3.5 µM RTP, 100 µM ATP",22%
same,inhibition at 28 µM,"HEV-1 RdRp; read-out: RdRp polymerase activity inhibition (%), 28 µM RTP (maximum)",28%
"CCN(CC)CCCC(C)Nc1ccnc2cc(Cl)ccc12 (stereo not shown) [CQ, chloroquine]",CC50 at 120 h,[2],4.77 ± 0.74 µM
same,"MNTD, maximum nontoxic dose",[1],0.06 µM
same,HEV-1 inhibition (%),HEV-1 [3],23 ± 2%
"C[C@H]1[C@H](OC(=O)CCC(=O)O)O[C@@H]2O[C@@]3(C)CC[C@H]4[C@H](C)CC[C@@H]1[C@@]24OO3 [ART, artesunate]",CC50 at 120 h,[2],189 ± 14.1 µM
same,"MNTD, maximum nontoxic dose",[1],23.43 µM
same,"TI for HEV-1, therapeutic index (CC50/EC50)",HEV-1 [3]; CC50/EC50,9.68
same,HEV-1 inhibition (%),HEV-1 [3],> 50%
same,ORF2 protein levels,HEV-1 [4],decreased ORF2 levels; also recorded: reduced ORF2 expression significantly
same,Reversibility of helicase inhibition,HEV-1 helicase,reversible
same,Helicase ATPase activity inhibition (%),"HEV-1 helicase; 4.8 µM ART, 100 µM ATP",23%
same,Helicase ATPase activity inhibition (%),"HEV-1 helicase; 78 µM ART, 100 µM ATP",55% and ~ 55%
same,Mode of inhibition of helicase ATPase,HEV-1 helicase; ATP pretreatment assay,competitive inhibitor
same,Mode of inhibition of helicase ATPase,HEV-1 helicase; enzyme pretreated with ART,noncompetitive inhibitor
same,ATPase activity (%),"HEV-1 helicase; helicase pre-incubated with 19.5 µM ART 30 min, 50 µM ATP",62%
same,ATPase activity (%),"HEV-1 helicase; helicase pre-incubated with 19.5 µM ART 30 min, 100 µM ATP",75%
same,ATPase activity (%),"HEV-1 helicase; helicase pre-incubated with ATP 30 min before 19.5 µM ART, 50 µM ATP",~ 79%
same,ATPase activity (%),"HEV-1 helicase; helicase pre-incubated with ATP 30 min before 19.5 µM ART, 100 µM ATP",86%
same,RdRp polymerase activity inhibition (%),HEV-1 RdRp; 4.8 µM ART,38%
same,RdRp polymerase activity inhibition (%),HEV-1 RdRp; 78 µM ART,40%
same,Elimination half-life,[5],21 to 72 min
same,Tmax,[5],less than one hour
same,"Mutagenic, tumorigenic and hepatotoxic potential",[6]; if used in high doses for a long time,"moderately mutagenic, tumorigenic, and hepatotoxic"
same,Risk of reproductive or developmental toxicity,[6],no risk
"NC(=O)c1ncn([C@@H]2O[C@H](CO)[C@@H](O)[C@H]2O)n1 [RBV, ribavirin]",CC50 at 120 h,[2],39 ± 5.9 µM
same,"MNTD, maximum nontoxic dose",[1],3.12 µM
same,ORF2 protein levels,HEV-1 [4],decreased ORF2 levels; also recorded: reduced ORF2 expression significantly
